In patent US11191754B2, “Inhibitors of nucleotidyl transferases and uses in herpes and hepatitis viral infections therefor” (Saint Louis University, priority 2015, dated 2021):

Key:
HBV RNAseH = test: Biochemical RNAseH assay with patient-derived variant HBV RNAseH enzymes; parameters: species or system hepatitis B virus; conditions: four genotype D patient-derived enzymes; compound at its IC50 (FIGS. 5A & 5B)
Description: RNaseH activity was measured using an oligonucleotide-directed RNA cleavage assay as previously described in Hu, et al., Tavis, et al., and Cai, et al. (2013; 2013; and 2014, respectfully). Briefly, 6 μL protein extract was mixed on ice with an internally ^32P-labeled 264 nt RNA derived from the Duck Hepatitis B Virus genome (DRF+ RNA) plus 3 μg oligonucleotide D2507- or its inverse-complement oligonucleotide D2526+ as a negative control. This mixture was incubated with test compounds in 50 mM Tris pH 8.0, 190 mM NaCl, 5 mM MgCl2, 3.5 mM DTT, 0.05% NP40, 6% glycerol, and 1% DMSO at 42° C. for 90 minutes. Cleavage products were resolved by denaturing polyacrylamide gel electrophoresis, detected by autoradiography, and quantified using ImageJ. Non-specific background values were determined from the incorrect oligonucleotide negative control lane and subtracted from all experimental values. IC50 values were then calculated with GraphPad Prism using three-parameter log(inhibitor) vs. response non-linear curve fitting with the curve minimum set to zero to reflect background subtraction.
HBV has 8 genotypes differing in sequence by 8%. Genetic diversity in the RNAseH domain is about 6%, which is easily high enough to modulate viral sensitivity to RNAseH inhibitors. […]

HBV [1] = test: Chou-Talalay combination analysis with Lamivudine against HBV replication; assay type: cell-based, hepatitis B virus; conditions: together with Lamivudine; CI <1.0 indicates synergy
Source text: Current nucleos(t)ide analog therapy for HBV has converted hepatitis type B from an implacably progressing illness to a controllable disease. However, patients are only very rarely cured, in part due to the incomplete inhibition of HBV replication. The inventors hypothesized that the novel RNaseH inhibitors would work synergistically with the existing nucleos(t)ide analogs because the two classes of drugs target physically distinct active sites on the viral polymerase protein. […] RNAseH inhibitors from two different chemical classes were employed, compound #1 [2-hydroxyisoquinoline-1,3(2H,4H)-dione], an HID, and #46 (β-thujaplicinol), an α-hydroxytropolone, were tested. Chou-Talaly analysis yields a combination index (CI). CI values <1.0 indicate synergy, CIs of approximately 1.0 indicate additive interactions, and CI values >1.0 indicate antagonism. CI values are calculated at various efficacy levels (EC50, EC75, EC90, and EC95), and a weighted CI value favoring higher efficacy levels is also generated. FIGS. 4A & 4B show the results of four experiments employing compound #1 and three with compound #46. […] Therefore, RNAseH inhibitors act strongly synergistically with an approved nucleos(t)ide analog drug against HBV.

HBV [2] = conditions: HBV patients; cited from earlier work

| Compound | inhibition of HBV RNAseH (HBV RNAseH) | weighted combination index (CI) (HBV [1]) | sustained clinical improvement (HBV [2]) |
| --- | --- | --- | --- |
| CC(C)c1ccc(O)c(=O)c(O)c1 [#46, β-thujaplicinol] | about 50% | 0.44±0.3 | – |
| Interferon α | – | – | 20-30 % of patients |
